“And” between values parts separate entries of the source, which are not always exact repeats. Identical values can stand only once.
Assay: xn = mol fraction of the nth substance listed

C=C(C)C(=O)OC + CCCCOCCO
viscosity [mPa·s], 101.3 kPa
Conditions | 298.15 K | 308.15 K
x1 = 0.0589 | 2.45 | 1.998
x1 = 0.1467 | 2.063 | 1.704
x1 = 0.2571 | 1.682 | 1.408
x1 = 0.3556 | 1.416 | 1.196
x1 = 0.4555 | 1.201 | 1.021
x1 = 0.5016 | 1.117 | 0.952
x1 = 0.5559 | 1.028 | 0.878
x1 = 0.6734 | 0.868 | 0.742
x1 = 0.7556 | 0.778 | 0.664
x1 = 0.857 | 0.686 | 0.583
x1 = 0.9547 | 0.613 | 0.518

CCCCOP(=O)(O)OCCCC + CCCN
297 K, 101 kPa
Conditions | viscosity [mPa·s]
x2 = 0.15 | 60
x2 = 0.3 | 100
x2 = 0.48 | 1370
x2 = 0.5 | 1700
x2 = 0.66 | 170

CCCCCCCCCCCCCCCCCCO + CCCO
298.15 K, 101 kPa
Conditions | viscosity [mPa·s]
x1 = 0.0016 | 2.071
x1 = 0.0028 | 2.011
x1 = 0.0106 | 2.164
x1 = 0.0212 | 2.332

C[N+](C)(C)CCC[N+]1(C)CCCCC1.N#C[N-]C#N.N#C[N-]C#N + CCO
viscosity [mPa·s], 100 kPa
Conditions | 293.15 K | 303.15 K | 323.15 K
x1 = 0.5002 | 280.5 | – | 70.55
x1 = 0.7998 | – | 828.4 | –

CCCC[P+](C)(CCCC)CCCC.COS(=O)(=O)[O-] + CN1CCCC1=O
101 kPa
Conditions | viscosity [mPa·s]
293.15 K, x1 = 0.2318 | 67.31
293.15 K, x1 = 0.6014 | 285.4
293.15 K, x1 = 0.7129 | 437.9
293.15 K, x1 = 0.8086 | 533
293.15 K, x1 = 0.9022 | 633.1
293.15 K, x1 = 0.9468 | 676.8
298.15 K, x1 = 0.2318 | 38.93
298.15 K, x1 = 0.2971 | 50.57
298.15 K, x1 = 0.3764 | 80.09
298.15 K, x1 = 0.7129 | 294.9
298.15 K, x1 = 0.8086 | 370.8
298.15 K, x1 = 0.8515 | 411.3
298.15 K, x1 = 0.9022 | 451.1
298.15 K, x1 = 0.9468 | 487
303.15 K, x1 = 0.0914 | 4.938
303.15 K, x1 = 0.1311 | 7.781
303.15 K, x1 = 0.2971 | 25.25
303.15 K, x1 = 0.3764 | 40.12
303.15 K, x1 = 0.4752 | 65.25
303.15 K, x1 = 0.8086 | 262.4
303.15 K, x1 = 0.8515 | 295.9
303.15 K, x1 = 0.9022 | 328.3
303.15 K, x1 = 0.9468 | 353.5
308.15 K, x1 = 0.0914 | 2.514
308.15 K, x1 = 0.1311 | 3.429
308.15 K, x1 = 0.1773 | 6.412
308.15 K, x1 = 0.2318 | 8.924
308.15 K, x1 = 0.4752 | 30.51
308.15 K, x1 = 0.6014 | 66.52
308.15 K, x1 = 0.9468 | 268.4
313.15 K, x1 = 0.1311 | 3.214
313.15 K, x1 = 0.1773 | 4.514
313.15 K, x1 = 0.2318 | 6.789
313.15 K, x1 = 0.7129 | 95.25
318.15 K, x1 = 0.1311 | 4.512
318.15 K, x1 = 0.1773 | 6.412
318.15 K, x1 = 0.2318 | 7.124
318.15 K, x1 = 0.6014 | 31.78
318.15 K, x1 = 0.7129 | 72.62
323.15 K, x1 = 0.0914 | 2.515
323.15 K, x1 = 0.1311 | 3.845
323.15 K, x1 = 0.1773 | 5.672
323.15 K, x1 = 0.7129 | 59.09
323.15 K, x1 = 0.8086 | 88.33

CCCC[P+](C)(CCCC)CCCC.COS(=O)(=O)[O-] + CN(C)C=O
100 kPa
Conditions | viscosity [mPa·s]
293.15 K, x1 = 0.4272 | 67.15
303.15 K, x1 = 0.8837 | 286.5
318.15 K, x1 = 0.6717 | 59.15
323.15 K, x1 = 0.7768 | 84.15

C=C(C)C(=O)OC + CO
viscosity [mPa·s], 101 kPa
Conditions | x2 = 0.1152 | x2 = 0.2092 | x2 = 0.3024 | x2 = 0.4008 | x2 = 0.5011 | x2 = 0.6041 | x2 = 0.7013 | x2 = 0.8003 | x2 = 0.9033
293.15 K | 0.5752 | 0.5665 | 0.5622 | 0.5592 | 0.5546 | 0.5576 | 0.5612 | 0.5709 | 0.5792
298.15 K | 0.5416 | 0.5329 | 0.5294 | 0.5266 | 0.5222 | 0.5232 | 0.5269 | 0.5357 | 0.5425
303.15 K | 0.5126 | 0.5046 | 0.5012 | 0.4973 | 0.4928 | 0.4944 | 0.4965 | 0.5036 | 0.5088
308.15 K | 0.4841 | 0.4783 | 0.4739 | 0.4705 | 0.4665 | 0.4673 | 0.4689 | 0.4748 | 0.4792
313.15 K | 0.4611 | 0.4552 | 0.4511 | 0.4474 | 0.4428 | 0.4435 | 0.4441 | 0.4493 | 0.4529
318.15 K | 0.4391 | 0.4335 | 0.4297 | 0.4261 | 0.4212 | 0.4228 | 0.4243 | 0.4259 | 0.4285
323.15 K | 0.4195 | 0.4138 | 0.4101 | 0.4063 | 0.4022 | 0.4031 | 0.4043 | 0.4057 | 0.4065

C[N+](C)(C)CCC[N+]1(C)CCCCC1.N#C[N-]C#N.N#C[N-]C#N + CO
viscosity [mPa·s], 100 kPa
Conditions | 303.15 K | 313.15 K | 323.15 K
x1 = 0.0999 | – | – | 2.735
x1 = 0.7998 | 918.9 | 488.5 | –

C=C(C)C(=O)OC + COCCO
viscosity [mPa·s], 101.3 kPa
Conditions | 298.15 K | 308.15 K
x1 = 0.0557 | 1.449 | 1.149
x1 = 0.1541 | 1.237 | 1.01
x1 = 0.2554 | 1.068 | 0.892
x1 = 0.3538 | 0.941 | 0.799
x1 = 0.4561 | 0.836 | 0.72
x1 = 0.4992 | 0.799 | 0.691
x1 = 0.553 | 0.759 | 0.658
x1 = 0.6543 | 0.696 | 0.606
x1 = 0.7542 | 0.65 | 0.564
x1 = 0.8539 | 0.616 | 0.529
x1 = 0.9543 | 0.592 | 0.502

O=C(c1ccccc1)N(O)c1ccccc1 + CS(C)=O
101 kPa
Conditions | viscosity [mPa·s]
308.15 K, x1 = 0.1408 | 2.065
318.15 K, x1 = 0.4694 | 1.565

Cc1cccc(C)c1O + C[N+](C)(C)CCO.[Cl-]
298.15 K, 101.33 kPa
Conditions | viscosity
x1 = 0.7 | 151.2 mPa·s
x1 = 0.8 | 86.79 mPa·s and 61.87 mPa·s and 54.12 mPa·s
x1 = 0.9 | 50.22 mPa·s

O=C(O)CCCC(=O)O + C[N+](C)(C)CCO.[Cl-]
100 kPa, x2 = 0.5
Conditions | viscosity [mPa·s]
293.15 K | 2968
298.15 K | 2015
303.15 K | 1408
308.15 K | 1007
313.15 K | 735.8
318.15 K | 547.5
323.15 K | 414.6

ClCCCCCCCl + Cc1cc(C)cc(C)c1
viscosity [mPa·s], 101 kPa
Conditions | x1 = 0.1049 | x1 = 0.2004 | x1 = 0.2961 | x1 = 0.4028 | x1 = 0.4994 | x1 = 0.5986 | x1 = 0.7 | x1 = 0.7998 | x1 = 0.9005
308.15 K | 0.645 | 0.714 | 0.798 | 0.896 | 0.995 | 1.106 | 1.221 | 1.352 | 1.488
313.15 K | 0.615 | 0.678 | 0.752 | 0.842 | 0.929 | 1.031 | 1.137 | 1.264 | 1.394
318.15 K | 0.586 | 0.651 | 0.709 | 0.795 | 0.877 | 0.972 | 1.071 | 1.182 | 1.289

CCCCC/C=C\C/C=C\CCCCCCCC(=O)OCC(COC(=O)CCCCCCC/C=C\C/C=C\CCCCC)OC(=O)CCCCCCC/C=C\C/C=C\CCCCC + Cc1ccc(C)cc1
viscosity [mPa·s], 101.3 kPa
Conditions | x1 = 0.000712 | x1 = 0.001435 | x1 = 0.00217 | x1 = 0.002914 | x1 = 0.003771 | x1 = 0.004524 | x1 = 0.005322 | x1 = 0.006113
298.15 K | 0.6159 | 0.6268 | 0.638 | 0.6494 | 0.6627 | 0.6742 | 0.6861 | 0.6966
303.15 K | 0.5801 | 0.5903 | 0.6008 | 0.6115 | 0.6238 | 0.6346 | 0.6455 | 0.6549
308.15 K | 0.5474 | 0.557 | 0.5668 | 0.5769 | 0.5885 | 0.5985 | 0.6085 | 0.617
313.15 K | 0.5174 | 0.5265 | 0.5358 | 0.5453 | 0.5561 | 0.5654 | 0.5747 | 0.5824
318.15 K | 0.49 | 0.4986 | 0.5074 | 0.5163 | 0.5265 | 0.5352 | 0.5437 | 0.5507

ClCCCCCCCl + Cc1ccc(C)cc1
viscosity [mPa·s], 101 kPa
Conditions | x1 = 0.08955 | x1 = 0.1825 | x1 = 0.2818 | x1 = 0.3684 | x1 = 0.4454 | x1 = 0.5735 | x1 = 0.6793 | x1 = 0.7843 | x1 = 0.8888
308.15 K | 0.586 | 0.645 | 0.722 | 0.802 | 0.878 | 1.027 | 1.154 | 1.307 | 1.45
313.15 K | 0.558 | 0.621 | 0.686 | 0.756 | 0.83 | 0.972 | 1.095 | 1.242 | 1.378
318.15 K | 0.534 | 0.595 | 0.653 | 0.714 | 0.78 | 0.899 | 1.014 | 1.134 | 1.267

C=C(C)C(=O)OC + Cc1ccccc1
303.15 K, 101 kPa
Conditions | viscosity [mPa·s]
x1 = 0.1041 | 0.5201
x1 = 0.2049 | 0.5187
x1 = 0.4069 | 0.5163
x1 = 0.5046 | 0.5155
x1 = 0.6068 | 0.5148
x1 = 0.798 | 0.5141
x1 = 0.896 | 0.5141

ClCCCCCCCl + Cc1ccccc1
viscosity [mPa·s], 101 kPa
Conditions | x1 = 0.07864 | x1 = 0.1578 | x1 = 0.2467 | x1 = 0.3346 | x1 = 0.4309 | x1 = 0.533 | x1 = 0.6475 | x1 = 0.755 | x1 = 0.8707
308.15 K | 0.536 | 0.604 | 0.676 | 0.764 | 0.868 | 0.978 | 1.121 | 1.267 | 1.44
313.15 K | 0.514 | 0.57 | 0.639 | 0.712 | 0.807 | 0.911 | 1.043 | 1.175 | 1.345
318.15 K | 0.49 | 0.543 | 0.605 | 0.682 | 0.769 | 0.865 | 0.983 | 1.095 | 1.228

From the CheMixHub viscosity set
